# From ChEMBL document CHEMBL3045457, “Synthesis and insecticidal activity of N-substituted (1,3-thiazole)alkyl sulfoximine derivatives” (2008)
# Test system: Myzus persicae
# Test: Insecticidal activity against Myzus persicae (green peach aphid) in horsebean shoot assessed as mortality at 10 mg/l at 25 +/-1 degC treated for 2 secs measured after 16 hr
# Format: functional
row,Compound,mortality at 10 µg/mL [%]
1,Cc1nc(Cl)sc1CS(C)(=O)=NC#N (configuration not stated),0
2,CCOc1nc(C(F)(F)F)c(CS(C)(=O)=NC#N)s1 (configuration not stated),68
3,CS(=O)(Cc1cnc(Br)s1)=NC#N (configuration not stated),93
4,CS(=O)(Cc1sc(Br)nc1C(F)(F)F)=NC#N (configuration not stated),48
5,CS(=O)(Cc1cnc(Cl)s1)=NC#N (configuration not stated),75
6,CS(=O)(Cc1ccc(Cl)nc1)=NC#N (configuration not stated),100
7,CS(=O)(Cc1sc(Cl)nc1C(F)(F)F)=NC#N (configuration not stated),100
